Data as given in ChEMBL document CHEMBL1148772, “Inhibition of Mycobacterium tuberculosis, Mycobacterium bovis, and Mycobacterium avium by novel dideoxy nucleosides” (J Med Chem, 2007).
≈ marks a conversion by molar mass, not a printed value.

Assays:
Type in all cases: functional
Settings in all cases: variant bovis BCG
[1] = tested on: Mycobacterium tuberculosis; assay: Antimycobacterial activity against Mycobacterium bovis BCG at 100 uM by microplate alamar blue assay
[2] = tested on: Mycobacterium tuberculosis; assay: Antimycobacterial activity against Mycobacterium bovis BCG at 50 uM by microplate alamar blue assay
[3] = tested on: Mycobacterium tuberculosis; assay: Antimycobacterial activity against Mycobacterium bovis BCG by microplate alamar blue assay
[4] = tested on: Mycobacterium tuberculosis; assay: Antimycobacterial activity against Mycobacterium bovis BCG at 10 uM by microplate alamar blue assay
[5] = tested on: Mycobacterium tuberculosis; assay: Antimycobacterial activity against Mycobacterium bovis BCG at 1 uM by microplate alamar blue assay

SMILES	inhibition at 100 µM [1] [%]	inhibition at 50 µM [2] [%]	MIC90 [3] [µg/mL]	inhibition at 10 µM [4] [%]	inhibition at 1 µM [5] [%]
Nc1nc(N)c2ncn([C@H]3CC[C@@H](CO)O3)c2n1	50	50			
CCCCCCCCCCCC#Cc1cn([C@H]2C[C@H](F)[C@@H](CO)O2)c(=O)[nH]c1=O	100	100	10 (≈ 24.5 µM)	75	
CCSc1nc(N)nc2c1ncn2[C@H]1CC[C@@H](CO)O1	100	100	10 (≈ 33.9 µM)	40	
Nc1ccn([C@@H]2CS[C@H](CO)O2)c(=O)n1 [LAMIVUDINE]	0				
CCCCCC#Cc1cn([C@H]2C[C@H](F)[C@@H](CO)O2)c(=O)[nH]c1=O	100	50	50 (≈ 154 µM)	50	
Nc1nc(O)c2ncn([C@H]3CC[C@@H](CO)O3)c2n1	0				
CCCCCCCCCC#Cc1cn([C@H]2CC[C@@H](CO)O2)c(=O)[nH]c1=O	100	100	1 (≈ 2.76 µM)	100	80
O=c1[nH]c(=O)n([C@H]2CC[C@@H](CO)O2)cc1Br	0				
CCCCCCCCCCCC#Cc1cn([C@H]2CC[C@@H](CO)O2)c(=O)[nH]c1=O	100	100	1 (≈ 2.56 µM)	100	60
COc1nc(N)nc2c1ncn2[C@H]1CC[C@@H](CO)O1 [METACAVIR]	25	25			
Nc1nc(=O)n([C@H]2CC[C@@H](CO)O2)cc1I	0				
Nc1nc(=O)n([C@H]2CC[C@@H](CO)O2)cc1Br	70			50	
CC(=O)OC[C@@H]1CC[C@H](n2ccc(=O)[nH]c2=O)O1	0				
CC(=O)OC[C@@H]1CC[C@H](n2cc(Cl)c(=S)[nH]c2=O)O1	100	70	50 (≈ 164 µM)		
CC(=O)OC[C@@H]1CC[C@H](n2cc(Cl)c(=O)[nH]c2=O)O1	0				
O=c1[nH]c(=S)c(Cl)cn1[C@H]1CC[C@@H](CO)O1	100	50	50 (≈ 190 µM)		

SMILES	inhibition at 100 µM [1] [%]	inhibition at 50 µM [2] [%]	MIC90 [3] [µg/mL]	inhibition at 10 µM [4] [%]	inhibition at 1 µM [5] [%]
Nc1ncnc2c1ncn2[C@H]1CC[C@@H](CO)O1	0				
CO[C@H]1/C=C/O[C@@]2(C)Oc3c(C)c(O)c4c(O)c(c(/C=N/N5CCN(C)CC5)c(O)c4c3C2=O)NC(=O)/C(C)=C\C=C\[C@H](C)[C@H](O)[C@@H](C)[C@@H](O)[C@@H](C)[C@H](OC(C)=O)[C@@H]1C [RIFAMPIN]			0.5 (≈ 0.608 µM)		
O=c1[nH]c(=O)n([C@H]2CC[C@@H](CO)O2)cc1Cl	0				
CCCCCCCCC#Cc1cn([C@H]2C[C@H](F)[C@@H](CO)O2)c(=O)[nH]c1=O	100	100	10 (≈ 27.3 µM)	60	
CCCCCCCCCCCCC#Cc1cn(C2CC(F)C(CO)O2)c(=O)[nH]c1=O (stereo not drawn)	100	100	1 (≈ 2.37 µM)	100	
CCCCCCCCCCC#Cc1cn([C@H]2C[C@H](F)[C@@H](CO)O2)c(=O)[nH]c1=O	100	100	10 (≈ 25.3 µM)	75	
Nc1nc(F)c2ccn([C@H]3CC[C@@H](CO)O3)c2n1	50	50		30	
CCCCCCCCCCCCC#Cc1cn([C@H]2CC[C@@H](CO)O2)c(=O)[nH]c1=O	100	100	1 (≈ 2.47 µM)	100	50
O=c1[nH]c(=O)n([C@H]2CC[C@@H](CO)O2)cc1C#Cc1ccccc1	25	25			
CCCc1ccc(C#Cc2cn([C@H]3C[C@H](F)[C@@H](CO)O3)c(=O)[nH]c2=O)cc1	100	100	50 (≈ 134 µM)	50	
Nc1ccn([C@H]2CC[C@@H](CO)O2)c(=O)n1 [ZALCITABINE]	0				
CCCC#Cc1cn([C@H]2CC[C@@H](CO)O2)c(=O)[nH]c1=O	50				
NC(=O)c1cn([C@H]2CC[C@@H](CO)O2)c2ncnc(N)c12	25	25			
Cc1cn([C@H]2CC[C@@H](CO)O2)c(=O)nc1N	50	50		50	
CCCCCCCCC#Cc1cn([C@H]2CC[C@@H](CO)O2)c(=O)[nH]c1=O	100	100	1 (≈ 2.87 µM)	100	50
N#Cc1cn(C2CCC(CO)O2)c2ncnc(N)c12 (stereo not drawn)	50	40			
